Reference: ChEMBL document CHEMBL1201862, “PubChem BioAssay data set” (2004)
The source made the active and inactive calls.

Experiments:
[1] = NIH3T3 cell viability loss – ATP luminescence, mouse fibroblasts, counter-screen, dose response (AID 2010); format: functional, cell-based;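 note: cells exposed to compound for about 90 hours before reading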
[2] = loss of viability in HepG2 cells – cell-based, CellTiter-Glo, cherry-picked, cytotoxicity control for Shn3 inhibitor project, dose response (AID 624134); format: functional
[3] = Trypanosoma cruzi growth suppression in host cells – NIH3T3 host cells, beta-gal luminescence, confirmation (AID 2044); format: functional, cell-based;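 note: intracellular parasites grown in NIH/3T3 mouse fibroblasts as host cells; luminescent beta-galactosidase reporter signal from transgenic T. cruzi replicating inside host cells; inhibitors lower the luminescence signal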
[4] = non-specific 3'UTR reporter inhibition in Clone20-Shn3RL – cell-based, Renilla luciferase, cherry-picked, counter-screen for Shn3 inhibitor project, dose response (AID 624133); format: functional
[5] = test system: INS1; test: INS-1E survival protection against cytokine death – cell-based, luminescence, retest, dose response (AID 449756); format: functional; settings: Rattus norvegicus;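 note: cell death triggered by IL-1 beta plus TNF-alpha plus IFN-gamma mixture; protective hits raise ATP signal compared with cytokine alone wells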
[6] = biological target: Protein S100-A4 (Homo sapiens, UniProt P26447); test: human S100A4 peptide interaction inhibition curves – biochemical, fluorescence polarization, cherry-picked hits, dose response (AID 687001); format: functional
Chain of Protein S100-A4 (P26447 whole entry): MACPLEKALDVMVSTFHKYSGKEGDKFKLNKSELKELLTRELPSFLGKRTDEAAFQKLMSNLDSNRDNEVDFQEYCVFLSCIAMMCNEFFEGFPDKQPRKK

[7] = biological target: Nonstructural protein 1 (Influenza A virus, UniProt Q194T2); format: functional, Influenza A virus (A/California/07/2009(H1N1))
Chain of Nonstructural protein 1 (Q194T2 whole entry): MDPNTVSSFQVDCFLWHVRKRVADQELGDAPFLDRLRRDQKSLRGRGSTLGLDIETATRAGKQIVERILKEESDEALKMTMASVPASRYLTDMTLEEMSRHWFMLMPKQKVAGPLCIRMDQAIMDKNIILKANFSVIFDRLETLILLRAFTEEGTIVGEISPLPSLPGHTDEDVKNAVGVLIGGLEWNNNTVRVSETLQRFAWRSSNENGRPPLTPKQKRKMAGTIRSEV

[8] = reduction of Shn3 3'UTR-driven luciferase in osteoblasts – cell-based, Clone20 osteoblasts, firefly luciferase, cherry-picked, dose response (AID 624132); format: functional;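 note: firefly luciferase luminescence from reporter carrying the Shn3 3'UTR in osteoblasts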
[9] = viability loss in HEK293T cells – cell-based, cherry-picks, cytotoxicity control for HIV Vif inhibitor project, dose response (AID 652208); format: functional
[10] = biological target: Long-chain-fatty-acid--AMP ligase FadD28 (Mycobacterium tuberculosis, UniProt P9WQ59); test: Fluorescence polarization aasay to screen for inhibitors that compete for the binding of FadD28 to a bisubstrate Measured in Biochemical System Using Plate Reader - 2147-01_Inhibitor_Dose_CherryPick_Activity.; format: functional, Mycobacterium tuberculosis H37Rv
Chain of Long-chain-fatty-acid--AMP ligase FadD28 (P9WQ59 whole entry, the tested form may be a part): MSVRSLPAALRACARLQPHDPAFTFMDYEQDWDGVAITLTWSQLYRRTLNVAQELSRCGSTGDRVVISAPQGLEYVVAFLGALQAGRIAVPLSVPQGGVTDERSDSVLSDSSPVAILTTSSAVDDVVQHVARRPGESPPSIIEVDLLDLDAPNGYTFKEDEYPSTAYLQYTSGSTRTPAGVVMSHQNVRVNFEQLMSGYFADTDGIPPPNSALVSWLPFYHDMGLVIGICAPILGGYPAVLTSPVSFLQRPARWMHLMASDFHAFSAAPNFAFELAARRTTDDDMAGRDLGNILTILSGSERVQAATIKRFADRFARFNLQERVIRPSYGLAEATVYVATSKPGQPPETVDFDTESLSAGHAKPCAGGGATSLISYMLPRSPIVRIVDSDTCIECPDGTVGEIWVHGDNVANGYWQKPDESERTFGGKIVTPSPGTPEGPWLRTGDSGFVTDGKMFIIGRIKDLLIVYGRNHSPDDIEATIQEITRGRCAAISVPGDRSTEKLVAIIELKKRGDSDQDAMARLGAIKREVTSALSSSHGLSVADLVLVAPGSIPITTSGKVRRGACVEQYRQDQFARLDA

[11] = biological target: T1, Tyrosine-protein phosphatase non-receptor type 22 (Homo sapiens, UniProt Q9Y2R2); test: PTPN22 enzyme inhibitors – biochemical, fluorescence, LYP catalytic domain, selectivity assay for LMPTP inhibitor project, dose response (AID 652006); format: functional; settings: read-out: IC50_Mean
T1 sequence (Q9Y2R2 whole entry): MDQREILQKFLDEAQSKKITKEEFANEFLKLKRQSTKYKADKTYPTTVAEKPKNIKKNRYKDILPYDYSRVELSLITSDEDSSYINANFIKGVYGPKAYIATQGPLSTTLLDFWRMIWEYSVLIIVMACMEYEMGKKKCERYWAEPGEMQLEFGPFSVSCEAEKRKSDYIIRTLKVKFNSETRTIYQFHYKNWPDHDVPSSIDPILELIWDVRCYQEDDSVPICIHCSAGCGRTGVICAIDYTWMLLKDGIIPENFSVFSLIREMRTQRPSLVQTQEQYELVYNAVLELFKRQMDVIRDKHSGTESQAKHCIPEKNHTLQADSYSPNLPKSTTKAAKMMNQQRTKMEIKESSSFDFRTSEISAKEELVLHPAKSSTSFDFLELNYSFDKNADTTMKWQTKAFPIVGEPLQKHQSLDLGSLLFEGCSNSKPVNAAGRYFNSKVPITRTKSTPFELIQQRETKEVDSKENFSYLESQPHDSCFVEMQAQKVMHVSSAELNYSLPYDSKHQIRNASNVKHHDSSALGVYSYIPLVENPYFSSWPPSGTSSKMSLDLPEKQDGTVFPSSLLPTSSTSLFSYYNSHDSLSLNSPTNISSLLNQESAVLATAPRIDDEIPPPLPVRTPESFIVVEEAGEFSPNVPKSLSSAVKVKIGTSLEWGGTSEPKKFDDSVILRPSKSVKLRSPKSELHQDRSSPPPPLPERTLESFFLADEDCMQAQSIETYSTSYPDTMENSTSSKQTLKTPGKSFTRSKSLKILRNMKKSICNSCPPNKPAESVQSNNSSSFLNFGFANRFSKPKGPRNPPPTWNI

[12] = biological target: T2, Low molecular weight phosphotyrosine protein phosphatase (Homo sapiens, UniProt P24666); format: functional; settings: read-out: IC50_Mean
T2 sequence (P24666 whole entry): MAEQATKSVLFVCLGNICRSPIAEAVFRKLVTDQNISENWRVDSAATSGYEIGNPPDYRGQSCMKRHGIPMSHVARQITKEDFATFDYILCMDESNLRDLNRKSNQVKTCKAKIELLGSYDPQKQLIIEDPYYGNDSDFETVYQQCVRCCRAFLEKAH

[13] = biological target: Albumin (Bos taurus, UniProt P02769); test: Counterscreen for inhibitors of T-cell receptor (TCR)-CD3 interaction: Fluorescence-based biochemical high throughput dose response assay to identify inhibitors of T-cell receptor (TCR)-CD3 interaction using a TAMRA-labeled BSA probe.; format: functional
Chain of Albumin (P02769 whole entry): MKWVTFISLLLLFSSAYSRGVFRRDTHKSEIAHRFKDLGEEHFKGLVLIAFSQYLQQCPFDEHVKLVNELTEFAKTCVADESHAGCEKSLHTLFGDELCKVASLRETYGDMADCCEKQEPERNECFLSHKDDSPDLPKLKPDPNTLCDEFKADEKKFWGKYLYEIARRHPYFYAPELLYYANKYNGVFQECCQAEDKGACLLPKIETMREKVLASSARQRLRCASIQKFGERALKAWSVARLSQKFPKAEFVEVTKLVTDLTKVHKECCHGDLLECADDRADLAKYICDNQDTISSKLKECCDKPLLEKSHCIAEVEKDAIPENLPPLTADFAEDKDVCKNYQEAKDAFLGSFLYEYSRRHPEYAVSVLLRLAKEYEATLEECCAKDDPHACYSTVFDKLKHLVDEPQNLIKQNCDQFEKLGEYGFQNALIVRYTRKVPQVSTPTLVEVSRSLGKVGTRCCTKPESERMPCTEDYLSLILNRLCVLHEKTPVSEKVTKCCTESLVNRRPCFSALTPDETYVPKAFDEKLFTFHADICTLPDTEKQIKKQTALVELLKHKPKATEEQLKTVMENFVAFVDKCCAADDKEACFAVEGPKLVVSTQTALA

[14] = biological target: T2, Low molecular weight phosphotyrosine protein phosphatase; format: functional; settings: read-out: IC50_Mean; remark: listed apart in the source
[15] = biological target: T3, Apoptotic protease-activating factor 1 (Homo sapiens, UniProt O14727); test: SAR analysis of small molecule Activators of Apaf-1 in a Fluorescent assay.; format: functional; settings: read-out: EC50_Mean;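 note: caspase-3 cleavage of fluorogenic Rh110 DEVD substrate downstream of apoptosome activation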
T3 sequence (O14727 whole entry): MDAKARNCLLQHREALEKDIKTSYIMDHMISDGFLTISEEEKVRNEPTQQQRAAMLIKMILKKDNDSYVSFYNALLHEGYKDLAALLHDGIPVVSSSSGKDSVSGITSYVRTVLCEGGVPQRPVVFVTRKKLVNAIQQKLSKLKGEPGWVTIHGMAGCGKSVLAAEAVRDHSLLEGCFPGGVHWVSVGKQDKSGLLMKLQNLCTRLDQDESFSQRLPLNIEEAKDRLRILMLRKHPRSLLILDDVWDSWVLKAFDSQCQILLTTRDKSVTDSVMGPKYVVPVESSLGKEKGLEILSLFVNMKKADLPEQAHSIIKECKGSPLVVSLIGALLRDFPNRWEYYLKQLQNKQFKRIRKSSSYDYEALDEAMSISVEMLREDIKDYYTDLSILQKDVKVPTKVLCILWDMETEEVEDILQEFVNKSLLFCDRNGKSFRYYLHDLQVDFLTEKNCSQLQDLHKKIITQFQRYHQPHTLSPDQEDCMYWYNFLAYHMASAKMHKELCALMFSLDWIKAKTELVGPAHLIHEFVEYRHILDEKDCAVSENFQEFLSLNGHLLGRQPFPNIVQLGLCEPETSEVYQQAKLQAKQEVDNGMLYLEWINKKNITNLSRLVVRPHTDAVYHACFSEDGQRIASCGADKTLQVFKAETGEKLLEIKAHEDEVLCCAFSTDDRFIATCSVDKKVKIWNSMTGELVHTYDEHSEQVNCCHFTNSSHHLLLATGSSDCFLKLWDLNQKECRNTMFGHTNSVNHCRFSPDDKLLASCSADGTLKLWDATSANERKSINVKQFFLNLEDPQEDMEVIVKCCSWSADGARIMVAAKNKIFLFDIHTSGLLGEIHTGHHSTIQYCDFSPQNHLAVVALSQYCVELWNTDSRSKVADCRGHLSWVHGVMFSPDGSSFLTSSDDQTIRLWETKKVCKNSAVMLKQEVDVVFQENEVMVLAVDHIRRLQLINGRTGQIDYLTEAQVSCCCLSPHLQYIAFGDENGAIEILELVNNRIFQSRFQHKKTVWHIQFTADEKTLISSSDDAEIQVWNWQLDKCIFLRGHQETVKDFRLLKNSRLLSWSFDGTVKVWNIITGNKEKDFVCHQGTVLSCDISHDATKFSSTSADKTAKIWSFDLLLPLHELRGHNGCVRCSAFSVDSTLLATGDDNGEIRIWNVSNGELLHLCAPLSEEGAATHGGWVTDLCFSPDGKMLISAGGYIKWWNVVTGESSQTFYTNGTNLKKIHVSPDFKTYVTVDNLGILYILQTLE

## CN1/C(=C\C=C2/SC(=S)NC2=O)C(C)(C)c2ccccc21
[1]
  EC50: 7.49 µM (active)
[2]
  AC50: 38.6 µM (active)
[3]
  EC50: 0.981 µM (active)
[4]
  AC50: 1.42 µM (active)
[5]
  AC50: 2.87 µM (active)
[6]
  AC50: 0.819 µM (active)
[7]
  IC50: 38.8 µM (active)
[8]
  AC50: 2.6 µM (active)

## COC(=O)c1ccc(NCc2cc(O)ccc2O)cc1O
[9]
  AC50: 26.3 µM (active)

## CCc1cccc2c(C(=O)CSc3nncn3-c3ccc(OC)cc3)c[nH]c12
[10]
  AC50: > 100 µM (inactive)

## O=C1C(=Cc2cn(-c3ccccc3)nc2-c2ccc(OCc3ccccc3)cc2)SC(=S)N1CCS(=O)(=O)O
[11]
  IC50: 16.1 µM (active)
[12]
  IC50: 7.75 µM (active)
[13]
  IC50: > 94.2 µM (inactive)
[14]
  IC50: 7.03 µM (active)

## CCOc1ccccc1NC(=O)CCS(=O)(=O)c1cc2c(cc1Br)CCN2C(=O)CC
[15]
  EC50: > 100 µM (inactive)
